Earlier results, collected in publication PMC2992174 (Journal of nuclear medicine : official publication, Society …, 2010).
Positions of bridges follow the written chain, without caps; N, C: chain ends. No end group written: not given here.

Tests used:
IPA = conditions: ^111In-labeled peptide, IPA in vivo

Substance	uptake by Candida albicans (Candida albicans)	background activity (IPA)	target uptake (IPA)
Fe-TAFC	inefficient		
CGGRLGPFC-NH2 (disulfide 1-9)		0.14 ± 0.02 %ID/g	0.37 ± 0.06 %ID/g
